Key:
[1] = Form C on ATR-IR sensor in ethanol vapor atmosphere; assay type: physicochemical; settings: room temperature
From the text: IR spectra (see, e.g. FIG. 2) were acquired by placing a few milligrams of the powder of the sample on a diamond sensor ATR (Attenuated Total Reflection) probe (Dicomp) using a React-IR 4000 system operated at 4 cm^−1 resolution and 128 scans between 650-4000 cm^−1.
Some experiments were executed by creating an ethanol vapor atmosphere around the ATR sensor at room temperature.

[2] = Mortar and pestle trials of Form A under mechanical stress (DSC, XRPD); assay type: physicochemical; settings: for decrease in the Enthalpy of Fusion (Form A): after 10 min mixing in reaction solvent
Protocol: Mortar and pestle trials were conducted to test the behavior of polymorph Form A under mechanical stress and to test and measure the kinetics of conversion of crystalline Form A to Form B under mechanical stress (possibly via amorphous Form C).

| Structure (SMILES) | polymorph form present ([1]; after two hours) | transformation of polymorph form ([1]; on ATR sensor) | decrease in the Enthalpy of Fusion (Form A) [2] | amorphous Form C formed under mechanical stress ([2]; confirmed by powder XRD (FIG. 5)) |
| --- | --- | --- | --- | --- |
| Cc1c(-c2ccc(O)cc2)n(Cc2ccc(OCCN3CCCCCC3)cc2)c2ccc(O)cc12 [Form C, 1-[4-(2-azepan-1-yl-ethoxy)-benzyl]-2-(4-hydroxy-phenyl)-3-methyl-1H-indol-5-ol acetic acid] | only polymorph Form B was present | transform rapidly into polymorph Form B |  |  |
| CC(=O)O.Cc1c(-c2ccc(O)cc2)n(Cc2ccc(OCCN3CCCCCC3)cc2)c2ccc(O)cc12 [Sample 8] |  |  | About 50% | significant amount of amorphous Form C |
| CC(=O)O.Cc1c(-c2ccc(O)cc2)n(Cc2ccc(OCCN3CCCCCC3)cc2)c2ccc(O)cc12 [Sample 7] |  |  | About 30% |  |

— patent US20100016290A1, “AMORPHOUS POLYMORPH OF BAZEDOXIFENE ACETATE” (priority 2008, published 2010)
